Measured values taken from US20220378707A1, “1-(((2S,3S,4S)-3-ETHYL-4-FLUORO-5-OXOPYRROLIDIN-2-YL)METHOXY)-7-METHOXYISOQUINOLINE-6-CARBOXAMIDE COMBINATIONS AND ORAL DOSAGE FORMS” (Pfizer Inc., priority 2019, published 2022).

System: HUVEC and M1 macrophages+Zymosan (TLR2 ligand)
Assay: BioMAP IMphg system
Assay type: cell-based, human
Conditions: CD14+ derived macrophages; PF-06650833 19-500 nM
Source text: The BioMAP systems consist of human primary cell-based systems designed to model different aspects of the human body in an in vitro format. The 12 systems tested characterized the test compounds across a broad set of systems modeling various human disease states. BioMAP systems were constructed with one or more primary cell types from healthy human donors, with stimuli (such as cytokines or growth factors) added to capture relevant signaling networks that naturally occur in human tissue or pathological conditions. […] Soluble factors from supernatants were quantified using either HTRF® detection, bead-based multiplex immunoassay or capture ELISA. Overt adverse effects of test agents on cell proliferation and viability (cytotoxicity) were detected by sulforhodamine B (SRB) staining, for adherent cells, and alamarBlue® reduction for cells in suspension. […] Each tested compound generated a signature BioMAP profile that was created from the changes in protein biomarker readouts within individual system environments. […] Each readout was measured quantitatively by immune-based methods that detected protein (e.g., ELISA) or functional assays that measured proliferation and viability. BioMAP readouts were diverse and included cell surface receptors, cytokines, chemokines, matrix molecules and enzymes. […]

CC[C@@H]1[C@H](F)C(=O)N[C@@H]1COc1nccc2cc(C(N)=O)c(OC)cc12 [PF-06650833, 1-(((2S,3S,4S)-3-Ethyl-4-fluoro-5-oxopyrrolidin-2-yl)methoxy)-7-methoxyisoquinoline-6-carboxamide] was tested, and the “Activity in the IMphg system” value was “no activity was found”.
